Source: patent US11986480B2, “Heterocyclic compound” (TOHOKU UNIVERSITY, priority 2017, dated 2024)

Columns and labels:
EmGFP-HaloTag [1] = test: Test Example 5: Atg5+/+ MEF cells overexpressing EmGFP-HaloTag, Western blot GFP/actin; type: cell-based, mouse; conditions: Atg5 WT MEF, 10 μM
Procedure: (§1) Test Example 5: Evaluation Using Atg5KO MEF
(§2) Atg5^−/− mouse embryonic fibroblast (MEF) cells or Atg5^+/+ MEF cells were inoculated to Dulbecco's Modified Eagle Medium (DMEM) and cultured for 24 hours. Cells overexpressing EmGFP-HaloTag were obtained by transfection with a plasmid pCMV-EmGFP-HaloTag (SEQ ID NO: 1) encoding EmGFP-HaloTag. On the next day, the compound of Example 56 was added thereto at a final concentration of 10 μM, followed by incubation for 24 hours under conditions of 37° C./5% CO2. The cells were washed with PBS three times and treated with a cell lysis solution containing a proteolytic enzyme inhibitor to obtain a cell extract. The cell extract was subjected to SDS-PAGE. After the electrophoresis, GFP and actin were detected by Western blot. The ratio of the GFP/actin value of the drug-treated cells to the GFP/actin value of a control group in drug-untreated cells was regarded as an activity value. A value of 1 or less represents that degradation of EmGFP-HaloTag was promoted.

EmGFP-HaloTag [2] = test: Test Example 5: Atg5-/- MEF cells overexpressing EmGFP-HaloTag, Western blot GFP/actin; type: cell-based, mouse; conditions: Atg5 KO MEF, 10 μM
Procedure: as §1, §2

EmGFP-HaloTag [3] = test: Test Example 1: HeLa cells stably expressing EmGFP-HaloTag, Western blot GFP/actin (Testing Method A); type: cell-based; conditions: 10 uM, 24 hours, 1 or less = degradation promoted
Procedure: Test Example 1: Evaluation Method Using Cell Stably Expressing EmGFP-HaloTag (Testing Method A)
HeLa cells stably expressing EmGFP-HaloTag were inoculated to Dulbecco's Modified Eagle Medium (DMEM) and cultured for 24 hours. Then, a test compound (specifically, compounds of Examples 1 to 7, 9 to 11, 13 to 15, 17 to 20, 24 to 27, 29, 32 to 33, 36 to 42, 44 to 46 and 56) was added thereto at the final concentration shown in Table 2, followed by incubation for 24 hours under conditions of 37° C./5% CO2. The cells were washed with PBS three times and treated with a cell lysis solution containing a proteolytic enzyme inhibitor to obtain a cell extract. The cell extract was subjected to SDS-PAGE. After the electrophoresis, GFP and actin were detected by Western blot. The ratio of the GFP/actin value of the drug-treated cells to the GFP/actin value of a control group in drug-untreated cells was regarded as an activity value. A value of 1 or less represents that degradation of EmGFP-HaloTag was promoted.

Brd4 = Brd4 (Homo sapiens, UniProt O60885); test: Test Example 4: A549 cells, Western blot Brd4/actin (Testing Method D); type: cell-based; design: endogenous in cells; conditions: BRD4, 1 uM, 24 hours, 1 or less = degradation promoted
Procedure: Test Example 4: Evaluation Using A549 Cell (Testing Method D)
(§3) A549 cells were inoculated to Dulbecco's Modified Eagle Medium (DMEM) and cultured for 24 hours. A test compound (specifically, compounds of Examples 57 and 58) was added thereto at the final concentration shown in Table 2, followed by incubation for 24 hours under conditions of 37° C./5% CO2. The cells were washed with PBS three times and treated with a cell lysis solution containing a proteolytic enzyme inhibitor to obtain a cell extract. The cell extract was subjected to SDS-PAGE. After the electrophoresis, Brd4 and actin were detected by Western blot. The ratio of the Brd4/actin value of the drug-treated cells to the Brd4/actin value of a control group in drug-untreated cells was regarded as an activity value. A value of 1 or less represents that degradation of Brd4 was promoted.

FKBP12 = target: T1, FKBP12 (Homo sapiens, UniProt P62942); test: Test Example 3: HeLa cells, Western blot FKBP12/actin (Testing Method C); type: cell-based; conditions: FKBP12, 1 uM, 24 hours, 1 or less = degradation promoted
T1 construct: endogenous in cells; host or cells: HeLa
T1 sequence (P62942 whole entry): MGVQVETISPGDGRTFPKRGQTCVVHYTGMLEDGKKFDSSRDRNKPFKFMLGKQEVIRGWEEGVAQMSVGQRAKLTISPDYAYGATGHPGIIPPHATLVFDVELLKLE
Procedure: (§4) Test Example 3: Evaluation Using HeLa Cell (Testing Method C)
as §3, with “HeLa” for “A549”, “47 to 52, 59” for “57”, “60)” for “58)”, “Brd4, FKBP12 or MetAP2” for “Brd4”, “Brd4, FKBP12 or MetAP2/actin” for “Brd4/actin”

MetAP2 = target: T2, MetAP2 (Homo sapiens, UniProt P50579); test: Test Example 3: HeLa cells, Western blot MetAP2/actin (Testing Method C); type: cell-based; conditions: MetAP2, 0.1 uM, 24 hours, 1 or less = degradation promoted
T2 construct: endogenous in cells; host or cells: HeLa
T2 sequence (P50579 whole entry): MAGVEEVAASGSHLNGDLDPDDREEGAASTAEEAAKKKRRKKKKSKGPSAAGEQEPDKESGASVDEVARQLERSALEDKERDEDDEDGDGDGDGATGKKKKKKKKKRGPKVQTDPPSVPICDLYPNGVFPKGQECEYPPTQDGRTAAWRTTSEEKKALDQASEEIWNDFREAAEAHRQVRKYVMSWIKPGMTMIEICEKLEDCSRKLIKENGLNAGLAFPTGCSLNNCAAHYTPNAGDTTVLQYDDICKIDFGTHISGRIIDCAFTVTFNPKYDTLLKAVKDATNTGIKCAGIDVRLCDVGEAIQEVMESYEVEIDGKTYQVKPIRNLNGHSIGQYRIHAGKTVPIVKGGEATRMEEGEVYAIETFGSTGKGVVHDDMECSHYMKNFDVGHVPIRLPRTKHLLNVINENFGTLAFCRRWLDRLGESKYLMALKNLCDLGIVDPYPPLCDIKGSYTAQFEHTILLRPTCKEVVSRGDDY
Procedure: as §4
as §3, with “HeLa” for “A549”, “47 to 52, 59” for “57”, “60)” for “58)”, “Brd4, FKBP12 or MetAP2” for “Brd4”, “Brd4, FKBP12 or MetAP2/actin” for “Brd4/actin”

Question: With `CC(=O)N[C@@H](CSc1nc2c(=O)[nH]c(N)nc2n1Cc1ccc(F)cc1)C(=O)NCCOCCOCCOCCOCCOCCCCCCCl` [Example 56, N^2-Acetyl-S-(2-amino-9-(4-fluorobenzyl)-6-oxo-6,9-dihydro-1H-purin-8-yl)-N-(21-chloro-3,6,9,12,15-pentaoxahenicos-1-yl)-L-cysteinamide] as the compound, how does the “Activity value (GFP/actin of drug-treated cells relative to drug-untreated control)” value (EmGFP-HaloTag [1]; 0h) read?
Answer: The value was 1.0.

Question: What about the “Activity value (GFP/actin of drug-treated cells relative to drug-untreated control)” value (EmGFP-HaloTag [1]; 24 h) of the same compound?
Answer: The value was 0.3.

Question: And the “Activity value (GFP/actin of drug-treated cells relative to drug-untreated control)” value (EmGFP-HaloTag [2]; 0h)?
Answer: The value was 1.0.

Question: What about the “Activity value (GFP/actin of drug-treated cells relative to drug-untreated control)” value (EmGFP-HaloTag [2]; 24 h) of the same compound?
Answer: The value was 1.1.

Question: And the “Activity value (GFP/actin of drug-treated cells relative to drug-untreated control)” value (EmGFP-HaloTag [3])?
Answer: The value was 0.55.

Question: For `CC(=O)N[C@@H](CSc1nc2c(=O)[nH]c(N)nc2n1Cc1ccc(F)cc1)C(=O)NCCCOCCOCCOCCCNC(=O)C[C@@H]1N=C(c2ccc(Cl)cc2)c2c(sc(C)c2C)-n2c(C)nnc21` [Example 57, N^2-Acetyl-S-(2-amino-9-(4-fluorobenzyl)-6-oxo-6,9-dihydro-1H-purin-8-yl)-N-(1-((6S)-4-(4-chlorophenyl)-2,3,9-trimethyl-6H-thieno[3,2-f][1,2,4]triazolo[4,3-a][1,4]diazepin-6-yl)-2-oxo-7,10,13-trioxa-3-azahexadecan-16-yl)-L-cysteinamide], which “Activity value (Brd4/actin of drug-treated cells relative to drug-untreated control)” value (Brd4) is on record?
Answer: Its value is 0.9.

Question: For `Cc1sc2c(c1C)C(c1ccc(Cl)cc1)=N[C@@H](CC(=O)NCCCOCCOCCOCCCNc1nc3c(=O)[nH]c(N)nc3n1Cc1ccc(F)cc1)c1nnc(C)n1-2` [Example 58, N-(3-(2-(2-(3-((2-Amino-9-(4-fluorobenzyl)-6-oxo-6,9-dihydro-1H-purin-8-yl)amino)propoxy)ethoxy)ethoxy)propyl)-2-((6S)-4-(4-chlorophenyl)-2,3,9-trimethyl-6H-thieno[3,2-f][1,2,4]triazolo[4,3-a][1,4]diazepin-6-yl)acetamide], which “Activity value (Brd4/actin of drug-treated cells relative to drug-untreated control)” value (Brd4) is on record?
Answer: The value was 0.8.

Question: Which “Activity value (FKBP12/actin of drug-treated cells relative to drug-untreated control)” value (FKBP12) does the source give for `CCC(C)(C)C(=O)C(=O)N1CCCCC1C(=O)O[C@H](CCc1ccc(OC)c(OC)c1)c1cccc(NC(=O)CCC(=O)NCCCOCCOCCOCCCNC(=O)[C@H](CSc2nc3c(=O)[nH]c(N)nc3n2Cc2ccc(F)cc2)NC(C)=O)c1` (stereo partly drawn) [Example 59, (1R)-1-(3-((18-((N-Acetyl-S-(2-amino-9-(4-fluorobenzyl)-6-oxo-6,9-dihydro-1H-purin-8-yl)-L-cysteinyl)amino)-4-oxo-9,12,15-trioxa-5-azaoctadecan-1-oyl)amino)phenyl)-3-(3,4-dimethoxyphenyl)propyl 1-(3,3-dimethyl-2-oxopentanoyl)piperidine-2-carboxylate] here?
Answer: Its value is 0.5.

Question: For `CO[C@@H]1[C@H](OC(=O)NCCCOCCOCCOCCCNC(=O)[C@H](CSc2nc3c(=O)[nH]c(N)nc3n2Cc2ccc(F)cc2)NC(C)=O)CC[C@]2(CO2)[C@H]1[C@@]1(C)O[C@@H]1CC=C(C)C` [Example 60, (3R,5S,6R)-5-Methoxy-4-((2R,3R)-2-methyl-3-(3-methylbut-2-en-1-yl)oxiran-2-yl)-1-oxaspiro[2.5]oct-6-yl (3-(2-(2-(3-((N-acetyl-S-(2-amino-9-(4-fluorobenzyl)-6-oxo-6,9-dihydro-1H-purin-8-yl)-L-cysteinyl)amino)propoxy)ethoxy)ethoxy)propyl)carbamate], which “Activity value (MetAP2/actin of drug-treated cells relative to drug-untreated control)” value (MetAP2) is on record?
Answer: The value was 0.7.
